Measurements as given in patent publication US20260262643A1, “HERBICIDAL BENZOXAZINES” (FMC CORPORATION, priority 2022, published 2026).

Legend:
barnyardgrass = assay: Test B flooded paddy test; type: in vivo, Echinochloa crus-galli; conditions: 250 g ai/ha, Flood, 13 days, 0 to 100 scale (0 no effect, 100 complete control)
Procedure, shortened: (§1)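 Two-leaf plants, 3 cm flood, in-water application, 13-day greenhouse hold, visual 0–100 rating vs untreated checks.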

ryegrass, Italian [1] = assay: Test A postemergence; type: in vivo, Lolium multiflorum
Procedure, shortened: (§2)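 Weeds and crops in loam–sand blend were sprayed preemergence onto soil or postemergence at 2–10 cm (one- to two-leaf stage). Test chemicals were in a non-phytotoxic solvent with surfactant. After 10 days in the greenhouse, injury was rated visually against untreated controls on a 0 (no effect) to 100 (complete control) scale.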

sedge, umbrella = assay: Test B flooded paddy test; type: in vivo, Cyperus difformis; conditions: 250 g ai/ha, Flood, 13 days, 0 to 100 scale (0 no effect, 100 complete control)
Procedure, shortened: as §1

wheat [2] = assay: Test A postemergence; type: in vivo, Triticum aestivum
Procedure, shortened: as §2

soybean [3] = assay: Test A preemergence; type: in vivo, Glycine max
Procedure, shortened: as §2

kochia [4] = assay: Test A postemergence; type: in vivo, Bassia scoparia
Procedure, shortened: as §2

horseweed = assay: Test A postemergence; type: in vivo, Erigeron canadensis
Procedure, shortened: as §2

galium = assay: Test A postemergence; type: in vivo, Galium aparine
Procedure, shortened: as §2

wheat [5] = assay: Test A preemergence; type: in vivo, Triticum aestivum
Procedure, shortened: as §2

ryegrass, Italian [6] = assay: Test A preemergence; type: in vivo, Lolium multiflorum
Procedure, shortened: as §2

pigweed, palmer [7] = assay: Test A preemergence; type: in vivo, Amaranthus palmeri
Procedure, shortened: as §2

foxtail, giant [8] = assay: Test A preemergence; type: in vivo, Setaria faberi
Procedure, shortened: as §2

goosegrass [9] = assay: Test A postemergence; type: in vivo, Eleusine indica
Procedure, shortened: as §2

blackgrass [10] = assay: Test A preemergence; type: in vivo, Alopecurus myosuroides
Procedure, shortened: as §2

rice = assay: Test B flooded paddy test; type: in vivo, Oryza sativa; conditions: 250 g ai/ha, Flood, 13 days, 0 to 100 scale (0 no effect, 100 complete control)
Procedure, shortened: as §1

oat, wild [11] = assay: Test A preemergence; type: in vivo, Avena fatua
Procedure, shortened: as §2

blackgrass [12] = assay: Test A postemergence; type: in vivo, Alopecurus myosuroides
Procedure, shortened: as §2

ducksalad = assay: Test B flooded paddy test; type: in vivo, Heteranthera limosa; conditions: 250 g ai/ha, Flood, 13 days, 0 to 100 scale (0 no effect, 100 complete control)
Procedure, shortened: as §1

goosegrass [13] = assay: Test A preemergence; type: in vivo, Eleusine indica
Procedure, shortened: as §2

ragweed [14] = assay: Test A preemergence; type: in vivo, Ambrosia artemisiifolia
Procedure, shortened: as §2

ragweed [15] = assay: Test A postemergence; type: in vivo, Ambrosia artemisiifolia
Procedure, shortened: as §2

soybean [16] = assay: Test A postemergence; type: in vivo, Glycine max
Procedure, shortened: as §2

corn [17] = assay: Test A postemergence; type: in vivo, Zea mays
Procedure, shortened: as §2

pigweed, palmer [18] = assay: Test A postemergence; type: in vivo, Amaranthus palmeri
Procedure, shortened: as §2

corn [19] = assay: Test A preemergence; type: in vivo, Zea mays
Procedure, shortened: as §2

kochia [20] = assay: Test A preemergence; type: in vivo, Bassia scoparia
Procedure, shortened: as §2

oat, wild [21] = assay: Test A postemergence; type: in vivo, Avena fatua
Procedure, shortened: as §2

foxtail, giant [22] = assay: Test A postemergence; type: in vivo, Setaria faberi
Procedure, shortened: as §2

[23] = 125 g ai/ha, postemergence, 10 days, visual injury, 0 to 100 scale (0 no effect, 100 complete control)
[24] = 500 g ai/ha, Postemergence, 0 to 100 scale
[25] = 125 g ai/ha, visual injury after 10 days, 0 to 100 scale, 0 is no effect, 100 is complete control
[26] = 500 g ai/ha, 0 to 100 scale (0 no effect, 100 complete control), 10 days

CC1CN(C(=O)c2cccc(-n3cncn3)c2)c2c(F)cccc2O1 (stereo not shown) [Compound 28]
20: Plant response rating, Kochia (kochia [4]; [24]) | Plant response rating, Goosegrass (goosegrass [13]; [25]) | Plant response rating, Ragweed (ragweed [14]; [26]) | Plant response rating, Corn (corn [17]; [24]) | Plant response rating, Pigweed, Palmer (pigweed, palmer [18]; [24]) | Plant response rating, Kochia (kochia [20]; [26]) | Plant response rating, Oat, Wild (oat, wild [21]; [23])
0: Plant response rating, Ryegrass, Italian (ryegrass, Italian [1]; [23]) | Plant response rating, Sedge, Umbrella (sedge, umbrella) | Plant response rating, Soybean (soybean [3]; [25]) | Plant response rating, Soybean (soybean [3]; [26]) | Plant response rating, Kochia (kochia [4]; [23]) | Plant response rating, Horseweed (horseweed; [23]) | Plant response rating, Horseweed (horseweed; [24]) | Plant response rating, Wheat (wheat [5]; [25]) | Plant response rating, Pigweed, Palmer (pigweed, palmer [7]; [25]) | Plant response rating, Goosegrass (goosegrass [9]; [23]) | Plant response rating, Blackgrass (blackgrass [10]; [25]) | Plant response rating, Rice (rice) | Plant response rating, Oat, Wild (oat, wild [11]; [25]) | Plant response rating, Oat, Wild (oat, wild [11]; [26]) | Plant response rating, Ragweed (ragweed [14]; [25]) | Plant response rating, Ragweed (ragweed [15]; [23]) | Plant response rating, Ragweed (ragweed [15]; [24]) | Plant response rating, Corn (corn [17]; [23]) | Plant response rating, Pigweed, Palmer (pigweed, palmer [18]; [23]) | Plant response rating, Corn (corn [19]; [25]) | Plant response rating, Kochia (kochia [20]; [25]) | Plant response rating, Foxtail, Giant (foxtail, giant [22]; [23])
70: Plant response rating, Ryegrass, Italian (ryegrass, Italian [1]; [24]) | Plant response rating, Foxtail, Giant (foxtail, giant [22]; [24])
50: Plant response rating, Galium (galium; [23]) | Plant response rating, Galium (galium; [24]) | Plant response rating, Pigweed, Palmer (pigweed, palmer [7]; [26]) | Plant response rating, Goosegrass (goosegrass [9]; [24])
90: Plant response rating, Ryegrass, Italian (ryegrass, Italian [6]; [26]) | Plant response rating, Foxtail, Giant (foxtail, giant [8]; [26]) | Plant response rating, Soybean (soybean [16]; [23]) | Plant response rating, Soybean (soybean [16]; [24])
40: Plant response rating, Ryegrass, Italian (ryegrass, Italian [6]; [25])
10: Plant response rating, Barnyardgrass (barnyardgrass) | Plant response rating, Wheat (wheat [2]; [23]) | Plant response rating, Wheat (wheat [5]; [26])
30: Plant response rating, Wheat (wheat [2]; [24]) | Plant response rating, Foxtail, Giant (foxtail, giant [8]; [25]) | Plant response rating, Blackgrass (blackgrass [12]; [23]) | Plant response rating, Corn (corn [19]; [26]) | Plant response rating, Oat, Wild (oat, wild [21]; [24])
80: Plant response rating, Blackgrass (blackgrass [12]; [24]) | Plant response rating, Ducksalad (ducksalad) | Plant response rating, Goosegrass (goosegrass [13]; [26])
60: Plant response rating, Blackgrass (blackgrass [10]; [26])
